Reference: publication PMC4999848 (Toxins, 2016)
Where “and” joins values, the source holds several entries; their conditions need not be identical. Equal entries are not always repeated. Entries after “also recorded” stand apart in the source; their conditions may differ.

Key:
HepG2 cells = assay: Deacetylation of 3/15ADON by HepG2 cells; format: in vitro ADME, human; details: for Disappearance of 3/15ADON, specific activity: HepG2, 37 °C, substrate 100 μM; for % deacetylated: HepG2, 6 h incubation, 100 μM
Procedure: (§1) A498, Caco-2, T84 and HepG2 cells were used as models of human renal, small intestinal, colonic and hepatic cells, respectively. Cells were routinely grown in culture media (Dulbecco’s Modified Eagle Medium (DMEM), DMEM:F12 mixture and Minimum Essential Media (MEM) for A498/Caco-2, T84 and HepG2 cells, respectively) supplemented with 10% fetal calf serum and 1% antibiotics (streptomycin–penicillin solution). Cells were grown in 25 cm^2 ventilated flask maintained at 37 °C in a 5% CO2 incubator. Cells were routinely passed using trypsin-EDTA solution. For deacetylation experiments, cells were seeded onto 6-well plates at an initial density of 200,000 cells/cm^2. HepG2 and A498 were used 3–4 days post-seeding when confluence was reached. Caco-2 and T84 cells were let to differentiate for 10–14 days post-seeding before being used. In all cases, cells were washed three times with sterile phosphate buffer saline PBS^++ (PBS containing 100 mg/L of calcium and magnesium salts) before deacetylation assay.
(§2) Stock solutions of DON, 3ADON and 15ADON at 2 mg/mL were prepared in absolute ethanol and stored at −20 °C. For deacetylation assay, 3- or 15ADON were incubated with cells, explants, bacteria or digestive enzymes after being diluted in PBS^++ at a final concentration of 100 μM. PBS^++ solution containing only ethanol (at 1.5% final concentration) or DON (at 100 μM) were used in parallel as negative and positive control, respectively. For cells and explants, deacetylation assay take place in 6-well plates, wells being filled with 2 mL of PBS^++ containing either ethanol, DON, 3- or 15ADON. For fecal bacteria and digestive enzyme assay, deacetylation assay was conducted in 2 mL Eppendorf tubes filled with 1.5 mL of PBS^++ containing either ethanol, DON, 3- or 15ADON. In vitro intestinal digestion by luminal enzymes was performed using porcine enzymes from Sigma-Aldrich and physiological conditions. Briefly, 3- or 15ADON were incubated with pepsin (at 1.6 mg/mL corresponding to 900 U/mL), trypsin (at 0.35 mg/mL corresponding to 6000 U/mL), pancreatic lipase (at 0.75 mg/mL corresponding to 18 U/mL) or pancreatin (at 1.23 mg/mL, lipase activity >10 U/mL, protease activity >100 U/mL, amylase activity >100 U/mL). Except for pepsin for which the digestion was conducted in HCl solution at 10 mM (pH 2.3), in vitro digestion was performed in PBS^++ (pH 7.4). Finally, deacetylation assay was also performed with commercial pooled S9 fractions from human liver, small intestine and kidneys as well as with pure recombinant human CES1 and CES2. […] In all cases, aliquots of the reaction solution were collected immediately (i.e., “time zero” sample) or after the indicated time period at 37 °C and analyzed by HPLC. […]

[1] = Deacetylation of 3/15ADON by kidney S9 fraction; format: in vitro ADME, human; details: for Disappearance of 3/15ADON, specific activity: S9 kidney 0.1 mg/mL, 37 °C, substrate 100 μM; for Activity of renal S9 fraction on 3/15ADON: in words
Procedure: (§3) Stock solutions of DON, 3ADON and 15ADON at 2 mg/mL were prepared in absolute ethanol and stored at −20 °C. For deacetylation assay, 3- or 15ADON were incubated with cells, explants, bacteria or digestive enzymes after being diluted in PBS^++ at a final concentration of 100 μM. PBS^++ solution containing only ethanol (at 1.5% final concentration) or DON (at 100 μM) were used in parallel as negative and positive control, respectively. For cells and explants, deacetylation assay take place in 6-well plates, wells being filled with 2 mL of PBS^++ containing either ethanol, DON, 3- or 15ADON. For fecal bacteria and digestive enzyme assay, deacetylation assay was conducted in 2 mL Eppendorf tubes filled with 1.5 mL of PBS^++ containing either ethanol, DON, 3- or 15ADON. In vitro intestinal digestion by luminal enzymes was performed using porcine enzymes from Sigma-Aldrich and physiological conditions. Briefly, 3- or 15ADON were incubated with pepsin (at 1.6 mg/mL corresponding to 900 U/mL), trypsin (at 0.35 mg/mL corresponding to 6000 U/mL), pancreatic lipase (at 0.75 mg/mL corresponding to 18 U/mL) or pancreatin (at 1.23 mg/mL, lipase activity >10 U/mL, protease activity >100 U/mL, amylase activity >100 U/mL). Except for pepsin for which the digestion was conducted in HCl solution at 10 mM (pH 2.3), in vitro digestion was performed in PBS^++ (pH 7.4). Finally, deacetylation assay was also performed with commercial pooled S9 fractions from human liver, small intestine and kidneys as well as with pure recombinant human CES1 and CES2. S9 fractions and CES1/2 were used at 0.1 mg/mL and 5 μg/mL (corresponding to CES activity >20 U/mL), respectively. In all cases, aliquots of the reaction solution were collected immediately (i.e., “time zero” sample) or after the indicated time period at 37 °C and analyzed by HPLC. […] In all cases, the experiments were conducted in triplicate (n = 3).
(§4) Deacetylation was monitoring both in term of disappearance of 3- or 15ADON and formation of DON. Measurement of DON, 3ADON and 15ADON concentrations was performed by reversed-phase HPLC using Waters Alliance System equipped with a Waters 2690 XE separation module and a Waters 996 photodiode array detector (Waters, Saint Quentin Falavier, France). The separation was achieved by mean of a LiChroCart column (125 mm × 4 mm) packed with 5 μm RP-18 Purospher gel (Merck, Darmstadt, Germany) and equipped with a LiChroCart precolumn (4 mm × 4 mm) packed with the same material (Merck). The precolumn and column were placed in room temperature. […] Quantification was based on calibration with the corresponding standard using Millinium Software (Waters, Saint Quentin Falavier, France).

pepsin = molecular target: T1, pepsin (Sus scrofa, UniProt P00791); assay: Deacetylation of 3/15ADON by pepsin; format: in vitro ADME, porcine; details: for Disappearance of 3/15ADON, specific activity: pepsin 1.6 mg/mL, HCl 10 mM pH 2.3, 37 °C, substrate 100 μM; for Contribution to total deacetylation activity: Pepsin: percentage of sum of specific activities (Figure 8)
T1 construct: purchased Sigma-Aldrich
Procedure: as §3, §4

Caco-2 cells = assay: Deacetylation of 3/15ADON by Caco-2 cells; format: in vitro ADME, human; details: for Disappearance of 3/15ADON, specific activity: Caco-2, 37 °C, substrate 100 μM; for % deacetylated: Caco-2, 6 h incubation, 100 μM
Procedure: as §1, §2

recombinant human CES2 = molecular target: T2, recombinant human CES2 (Homo sapiens, UniProt O00748); assay: Deacetylation of 3/15ADON by recombinant CES2; format: in vitro ADME; set-up: purchased R&D Systems; details: 5 μg/mL CES2, up to 24 h, data not shown
T2 sequence (O00748 27-559): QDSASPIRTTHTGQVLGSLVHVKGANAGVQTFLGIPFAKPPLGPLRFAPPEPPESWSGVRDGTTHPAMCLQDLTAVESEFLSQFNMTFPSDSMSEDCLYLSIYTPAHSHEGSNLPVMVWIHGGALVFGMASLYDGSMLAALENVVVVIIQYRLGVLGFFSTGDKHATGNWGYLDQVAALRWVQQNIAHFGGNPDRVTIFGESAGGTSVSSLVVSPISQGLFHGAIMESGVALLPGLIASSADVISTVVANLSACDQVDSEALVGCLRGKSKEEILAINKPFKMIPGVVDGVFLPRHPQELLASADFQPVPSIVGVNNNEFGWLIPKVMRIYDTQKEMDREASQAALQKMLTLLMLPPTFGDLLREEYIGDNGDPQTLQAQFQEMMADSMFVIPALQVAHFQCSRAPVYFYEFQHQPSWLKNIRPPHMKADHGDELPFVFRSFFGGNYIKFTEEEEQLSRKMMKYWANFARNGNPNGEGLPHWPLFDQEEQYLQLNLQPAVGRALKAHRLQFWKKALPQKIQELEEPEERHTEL
Procedure: Stock solutions of DON, 3ADON and 15ADON at 2 mg/mL were prepared in absolute ethanol and stored at −20 °C. For deacetylation assay, 3- or 15ADON were incubated with cells, explants, bacteria or digestive enzymes after being diluted in PBS^++ at a final concentration of 100 μM. PBS^++ solution containing only ethanol (at 1.5% final concentration) or DON (at 100 μM) were used in parallel as negative and positive control, respectively. For cells and explants, deacetylation assay take place in 6-well plates, wells being filled with 2 mL of PBS^++ containing either ethanol, DON, 3- or 15ADON. For fecal bacteria and digestive enzyme assay, deacetylation assay was conducted in 2 mL Eppendorf tubes filled with 1.5 mL of PBS^++ containing either ethanol, DON, 3- or 15ADON. In vitro intestinal digestion by luminal enzymes was performed using porcine enzymes from Sigma-Aldrich and physiological conditions. […] In all cases, aliquots of the reaction solution were collected immediately (i.e., “time zero” sample) or after the indicated time period at 37 °C and analyzed by HPLC. […]
Deacetylation was monitoring both in term of disappearance of 3- or 15ADON and formation of DON. […] Quantification was based on calibration with the corresponding standard using Millinium Software (Waters, Saint Quentin Falavier, France).

T1 sequence (P00791 60-385): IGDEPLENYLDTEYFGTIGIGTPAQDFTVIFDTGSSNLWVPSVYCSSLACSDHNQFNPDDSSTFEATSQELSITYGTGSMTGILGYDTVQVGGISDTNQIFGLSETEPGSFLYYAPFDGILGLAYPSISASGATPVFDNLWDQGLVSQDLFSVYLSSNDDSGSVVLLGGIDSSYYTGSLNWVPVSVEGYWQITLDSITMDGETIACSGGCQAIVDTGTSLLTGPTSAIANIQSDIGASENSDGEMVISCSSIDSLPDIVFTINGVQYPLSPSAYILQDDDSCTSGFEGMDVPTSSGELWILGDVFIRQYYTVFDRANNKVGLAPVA

| Compound | Disappearance of 3/15ADON, specific activity (HepG2 cells) | % deacetylated (HepG2 cells) | Disappearance of 3/15ADON, specific activity [1] | Activity of renal S9 fraction on 3/15ADON [1] | Disappearance of 3/15ADON, specific activity (pepsin) [pmol/min/mg] | Contribution to total deacetylation activity: Pepsin (pepsin) [%] | Disappearance of 3/15ADON, specific activity (Caco-2 cells) | % deacetylated (Caco-2 cells) | Deacetylation activity of CES2 on 3/15ADON (recombinant human CES2) |
| --- | --- | --- | --- | --- | --- | --- | --- | --- | --- |
| CC(=O)OC[C@]12[C@H](O)C(=O)C(C)=C[C@H]1O[C@@H]1[C@H](O)C[C@@]2(C)[C@]12CO2 [15ADON, 15-acetyldeoxynivalenol] | 295 pmol/min/mg and 295 ± 41 pmol/min/mg | 16.8% ± 2.4% | 16 pmol/min/mg and 16 ± 5.8 pmol/min/mg | minor activity, if any | 40 ± 4.5 | 7 | 152 pmol/min/mg and 152 ± 38 pmol/min/mg | 22.4% ± 5.5% | failed at observing any deacetylation activity; also recorded: unable to cause the deacetylation |
| CC(=O)O[C@@H]1C[C@]2(C)[C@@]3(CO)[C@H](O)C(=O)C(C)=C[C@H]3O[C@H]1[C@@]21CO1 [3ADON, 3-acetyldeoxynivalenol] | 902 pmol/min/mg and 902 ± 78 pmol/min/mg | 52.1% ± 4.5% | 33 pmol/min/mg and 33 ± 8.3 pmol/min/mg | minor activity, if any | 34 ± 7.5 | 3 | 479 pmol/min/mg and 479 ± 97 pmol/min/mg | 69.1% ± 14.3% | failed at observing any deacetylation activity; also recorded: unable to cause the deacetylation |
